The record followed here is US10180422B1, “Methods of treating a neuroendocrine tumor” (Scripps Health, priority 2017, dated 2019).

This data set relates to neuroendocrine tumor (NET) with ETV6:NTRK3 translocation. Briefly: Treatment of a NET patient with the Trk inhibitor entrectinib (case report, Example 1). The data set is classed as in vivo, human. The note with it: for weight gain: patient. An excerpt: A previously healthy patient presented with progressive low back pain and 11 kg weight loss over the previous year. They were a never-smoker, occasional alcohol drinker, and an avid runner. The patient had no relevant family history of cancer.
A right upper quadrant ultrasound noted echogenic masses present in the liver. A computed tomography (CT) scan identified low-density liver lesions, adrenal masses, bulky retroperitoneal and pelvic lymphadenopathy, and diffuse bony disease. […] Multiple hypermetabolic liver lesions are seen, and innumerable lesions are seen throughout the skeleton (FIG. 1A). CT-guided biopsy of the left iliac bone reported well-differentiated neuroendocrine carcinoma (NETs), possibly from a lower GI source. […] Repeat CT-guided core biopsy of a right iliac soft tissue mass confirmed the absence of a high-grade component, consistent with the initial biopsy.
The patient received 3000 cGy of palliative radiotherapy to L1-S3 in 10 fractions for pain management followed by temozolomide and capecitabine chemotherapy.
Following chemotherapy, a tumor biopsy was obtained from the patient's lymph node, FFPE slides were prepared, and the NTRK status of the patient's NET was first analyzed by immunohistochemistry (IHC). The patient's tumor was positive for altered NTRK protein expression and the NET was subsequently analyzed by RNAseq NGS. An ETV6:NTRK3 translocation was identified in the patient's tumor and therapy was initiated with the investigational agent entrectinib, a potent oral tyrosine kinase inhibitor of TrkA, TrkB, and TrkC.

Setting [1] is: after cycle #1 (one month) of entrectinib treatment.

“Also recorded” adds a separate entry of the source.

As for `CN1CCN(c2ccc(C(=O)Nc3n[nH]c4ccc(Cc5cc(F)cc(F)c5)cc34)c(NC3CCOCC3)c2)CC1` [entrectinib, N-[5-(3,5-difluoro-benzyl)-1h-indazol-3-yl]-4-(4-methyl-piperazin-1-yl)-2-(tetrahydro-pyran-4-ylamino)-benzamide], for the setting “after 1 cycle of entrectinib, compared with the scan after chemotherapy (FIG. 3B vs 3A)”, the “axial contrast-enhanced abdominal CT, left pelvic sidewall masses” value was “appear swollen and measure larger, but are lower in density; also recorded: appeared swollen and measured larger, but was lower in density than the previous scan”. Moreover, the “FDG-PET imaging, skeleton / bony disease” value (after 2 cycles of entrectinib (FIG. 1B, right proximal femur)) is “improvement in the previously confluent bony disease; also recorded: clear improvement was observed in the skeleton”. Also, the “octreoscan, overall disease (tumor) burden” value (after 6 months (6 cycles) of entrectinib, compared with presentation (FIG. 2B vs 2A)) is on record as “significant overall reduction in tumor burden; also recorded: significant reduction in overall disease burden”. For the same compound, under setting [1], the “pain and energy levels (patient-reported)” value is “significant improvement in pain and energy levels”; the weight gain is listed as 6 kg. The “clinical status (energy, activity, pain control requirements)” value (at 8 months on entrectinib) is “normalized energy and activity, and markedly reduced pain control requirements”. Moreover, the “response of liver metastases” value (during entrectinib treatment) is on record as “some liver metastases have responded, while others have not”. Further, the adverse events entry (patient on entrectinib up to 8 months) is listed as “no notable adverse events”. For the setting “at 8 months on entrectinib, stabilized”, this compound came in with a weight gain of 12 kg. Moreover, the “follow-up CT scans, pelvic nodal masses” value (subsequent months of entrectinib treatment) is given as “continued shrinkage of the pelvic nodal masses”.
